Experimental data: patent US12377104B1, “Methods for treating a fatty liver disease” (Madrigal Pharmaceuticals, Inc., priority 2024, dated 2025)

How the values were obtained:
[1] = Protein binding; format: in vitro ADME
[2] = MAESTRO-NASH: sex hormones at week 52; conditions: for Estradiol (female), LS mean CFB / Estradiol (female), LS mean difference from PBO (CFB) / Estradiol (male), LS mean CFB / Estradiol (male), LS mean difference from PBO (CFB) / FSH (female), LS mean CFB / FSH (female), LS mean difference from PBO (CFB) / FSH (male), LS mean CFB / FSH (male), LS mean difference from PBO (CFB) / Free testosterone (female), LS mean CFB / Free testosterone (female), LS mean difference from PBO (CFB) / Free testosterone (male), LS mean CFB / Free testosterone (male), LS mean difference from PBO (CFB) / LH (female), LS mean CFB / LH (female), LS mean difference from PBO (CFB) / LH (male), LS mean CFB / LH (male), LS mean difference from PBO (CFB) / SHBG (female), LS mean % CFB / SHBG (female), LS mean CFB / SHBG (female), LS mean difference from PBO (% CFB) / SHBG (female), LS mean difference from PBO (CFB) / SHBG (male), LS mean % CFB / SHBG (male), LS mean CFB / SHBG (male), LS mean difference from PBO (% CFB) / SHBG (male), LS mean difference from PBO (CFB) / SHBG, LS mean % CFB / SHBG, LS mean CFB / SHBG, LS mean difference from PBO (% CFB) / SHBG, LS mean difference from PBO (CFB) / Testosterone (female), LS mean CFB / Testosterone (female), LS mean difference from PBO (CFB) / Testosterone (male), LS mean CFB / Testosterone (male), LS mean difference from PBO (CFB): Week 52

**Q.** Which protein-bound [1] does the source give for `CC(C)c1cc(Oc2c(Cl)cc(-n3nc(C#N)c(=O)[nH]c3=O)cc2Cl)n[nH]c1=O` [Resmetirom, 2-(3,5-dichloro-4-((5-isopropyl-6-oxo-1,6-dihydropyridazin-3-yl)oxy)phenyl)-3,5-dioxo-2,3,4,5-tetrahydro-1,2,4-triazine-6-carbonitrile] here?
**A.** The protein-bound was “greater than 99%”.

**Q.** And the “Estradiol (female), LS mean CFB” value ([2]; 80 mg)?
**A.** Its value is 17.7 ng/L.

**Q.** And the “Estradiol (female), LS mean difference from PBO (CFB)” value ([2]; 80 mg)?
**A.** Its value is 15.9 ng/L.

**Q.** And the “Estradiol (male), LS mean CFB” value ([2]; 80 mg)?
**A.** The value was 8.9 ng/L.

**Q.** And the “Estradiol (male), LS mean difference from PBO (CFB)” value ([2]; 80 mg)?
**A.** The value was 9.0 ng/L.

**Q.** What about the “FSH (female), LS mean CFB” value ([2]; 80 mg) of the same compound?
**A.** The value was −0.54 mIU/mL.

**Q.** And the “FSH (female), LS mean difference from PBO (CFB)” value ([2]; 80 mg)?
**A.** Its value is 0.79 mIU/mL.

**Q.** And the “FSH (male), LS mean CFB” value ([2]; 80 mg)?
**A.** Its value is 1.1 mIU/mL.

**Q.** What about the “FSH (male), LS mean difference from PBO (CFB)” value ([2]; 80 mg) of the same compound?
**A.** Its value is 1.1 mIU/mL.

**Q.** And the “Free testosterone (female), LS mean CFB” value ([2]; 80 mg)?
**A.** The value was 0 nmol/L.

**Q.** What about the “Free testosterone (female), LS mean difference from PBO (CFB)” value ([2]; 80 mg) of the same compound?
**A.** The value was 0 nmol/L.

**Q.** What about the “Free testosterone (male), LS mean CFB” value ([2]; 80 mg) of the same compound?
**A.** The value was 0.04 nmol/L.

**Q.** And the “Free testosterone (male), LS mean difference from PBO (CFB)” value ([2]; 80 mg)?
**A.** Its value is 0.02 nmol/L.

**Q.** What about the “LH (female), LS mean CFB” value ([2]; 80 mg) of the same compound?
**A.** The value was −0.93 mIU/mL.

**Q.** What about the “LH (female), LS mean difference from PBO (CFB)” value ([2]; 80 mg) of the same compound?
**A.** The value was −0.33 mIU/mL.

**Q.** What about the “LH (male), LS mean CFB” value ([2]; 80 mg) of the same compound?
**A.** Its value is 1.7 mIU/mL.

**Q.** And the “LH (male), LS mean difference from PBO (CFB)” value ([2]; 80 mg)?
**A.** The value was 1.8 mIU/mL.

**Q.** And the “SHBG (female), LS mean % CFB” value ([2]; 80 mg)?
**A.** Its value is 193.0%.

**Q.** What about the “SHBG (female), LS mean CFB” value ([2]; 80 mg) of the same compound?
**A.** Its value is 74.1 nmol/L.

**Q.** And the “SHBG (female), LS mean difference from PBO (% CFB)” value ([2]; 80 mg)?
**A.** The value was 177.4%.

**Q.** What about the “SHBG (female), LS mean difference from PBO (CFB)” value ([2]; 80 mg) of the same compound?
**A.** The value was 73.3 nmol/L.

**Q.** And the “SHBG (male), LS mean % CFB” value ([2]; 80 mg)?
**A.** Its value is 108.0%.

**Q.** And the “SHBG (male), LS mean CFB” value ([2]; 80 mg)?
**A.** Its value is 41.9 nmol/L.

**Q.** And the “SHBG (male), LS mean difference from PBO (% CFB)” value ([2]; 80 mg)?
**A.** Its value is 107.3%.

**Q.** What about the “SHBG (male), LS mean difference from PBO (CFB)” value ([2]; 80 mg) of the same compound?
**A.** Its value is 40.4 nmol/L.

**Q.** What about the “SHBG, LS mean % CFB” value ([2]; 80 mg) of the same compound?
**A.** Its value is 157.5%.

**Q.** And the “SHBG, LS mean CFB” value ([2]; 80 mg)?
**A.** Its value is 60.2 nmol/L.

**Q.** And the “SHBG, LS mean difference from PBO (% CFB)” value ([2]; 80 mg)?
**A.** Its value is 148.5%.

**Q.** What about the “SHBG, LS mean difference from PBO (CFB)” value ([2]; 80 mg) of the same compound?
**A.** The value was 58.9 nmol/L.

**Q.** And the “Testosterone (female), LS mean CFB” value ([2]; 80 mg)?
**A.** Its value is 0.15 µg/L.

**Q.** And the “Testosterone (female), LS mean difference from PBO (CFB)” value ([2]; 80 mg)?
**A.** Its value is 0.15 µg/L.

**Q.** What about the “Testosterone (male), LS mean CFB” value ([2]; 80 mg) of the same compound?
**A.** The value was 2.6 µg/L.

**Q.** What about the “Testosterone (male), LS mean difference from PBO (CFB)” value ([2]; 80 mg) of the same compound?
**A.** The value was 2.2 µg/L.

**Q.** What about the “Estradiol (female), LS mean CFB” value ([2]; 100 mg) of the same compound?
**A.** The value was 30.6 ng/L.

**Q.** What about the “Estradiol (female), LS mean difference from PBO (CFB)” value ([2]; 100 mg) of the same compound?
**A.** The value was 28.8 ng/L.

**Q.** And the “Estradiol (male), LS mean CFB” value ([2]; 100 mg)?
**A.** The value was 11.0 ng/L.

**Q.** And the “Estradiol (male), LS mean difference from PBO (CFB)” value ([2]; 100 mg)?
**A.** The value was 11.2 ng/L.

**Q.** And the “FSH (female), LS mean CFB” value ([2]; 100 mg)?
**A.** The value was 0.63 mIU/mL.

**Q.** What about the “FSH (female), LS mean difference from PBO (CFB)” value ([2]; 100 mg) of the same compound?
**A.** Its value is 2.0 mIU/mL.

**Q.** What about the “FSH (male), LS mean CFB” value ([2]; 100 mg) of the same compound?
**A.** Its value is 1.7 mIU/mL.

**Q.** And the “FSH (male), LS mean difference from PBO (CFB)” value ([2]; 100 mg)?
**A.** Its value is 1.7 mIU/mL.

**Q.** What about the “Free testosterone (female), LS mean CFB” value ([2]; 100 mg) of the same compound?
**A.** Its value is 0 nmol/L.

**Q.** What about the “Free testosterone (female), LS mean difference from PBO (CFB)” value ([2]; 100 mg) of the same compound?
**A.** Its value is 0 nmol/L.

**Q.** What about the “Free testosterone (male), LS mean CFB” value ([2]; 100 mg) of the same compound?
**A.** The value was 0.03 nmol/L.

**Q.** What about the “Free testosterone (male), LS mean difference from PBO (CFB)” value ([2]; 100 mg) of the same compound?
**A.** Its value is 0.01 nmol/L.

**Q.** And the “LH (female), LS mean CFB” value ([2]; 100 mg)?
**A.** Its value is 0.80 mIU/mL.

**Q.** And the “LH (female), LS mean difference from PBO (CFB)” value ([2]; 100 mg)?
**A.** Its value is 1.4 mIU/mL.

**Q.** And the “LH (male), LS mean CFB” value ([2]; 100 mg)?
**A.** The value was 1.9 mIU/mL.

**Q.** What about the “LH (male), LS mean difference from PBO (CFB)” value ([2]; 100 mg) of the same compound?
**A.** The value was 2.0 mIU/mL.

**Q.** What about the “SHBG (female), LS mean % CFB” value ([2]; 100 mg) of the same compound?
**A.** Its value is 251.8%.

**Q.** What about the “SHBG (female), LS mean CFB” value ([2]; 100 mg) of the same compound?
**A.** The value was 94.0 nmol/L.

**Q.** What about the “SHBG (female), LS mean difference from PBO (% CFB)” value ([2]; 100 mg) of the same compound?
**A.** The value was 236.2%.

**Q.** What about the “SHBG (female), LS mean difference from PBO (CFB)” value ([2]; 100 mg) of the same compound?
**A.** The value was 93.2 nmol/L.

**Q.** And the “SHBG (male), LS mean % CFB” value ([2]; 100 mg)?
**A.** The value was 174.0%.

**Q.** And the “SHBG (male), LS mean CFB” value ([2]; 100 mg)?
**A.** The value was 60.8 nmol/L.

**Q.** And the “SHBG (male), LS mean difference from PBO (% CFB)” value ([2]; 100 mg)?
**A.** Its value is 173.3%.

**Q.** What about the “SHBG (male), LS mean difference from PBO (CFB)” value ([2]; 100 mg) of the same compound?
**A.** The value was 59.3 nmol/L.

**Q.** And the “SHBG, LS mean % CFB” value ([2]; 100 mg)?
**A.** The value was 217.4%.

**Q.** And the “SHBG, LS mean CFB” value ([2]; 100 mg)?
**A.** The value was 80.7 nmol/L.

**Q.** What about the “SHBG, LS mean difference from PBO (% CFB)” value ([2]; 100 mg) of the same compound?
**A.** Its value is 208.4%.

**Q.** What about the “SHBG, LS mean difference from PBO (CFB)” value ([2]; 100 mg) of the same compound?
**A.** The value was 79.4 nmol/L.

**Q.** And the “Testosterone (female), LS mean CFB” value ([2]; 100 mg)?
**A.** The value was 0.19 µg/L.

**Q.** And the “Testosterone (female), LS mean difference from PBO (CFB)” value ([2]; 100 mg)?
**A.** The value was 0.19 µg/L.

**Q.** What about the “Testosterone (male), LS mean CFB” value ([2]; 100 mg) of the same compound?
**A.** Its value is 3.5 µg/L.

**Q.** And the “Testosterone (male), LS mean difference from PBO (CFB)” value ([2]; 100 mg)?
**A.** The value was 3.0 µg/L.

**Q.** What about the “levels of sex hormones” value ([2]; in vivo) of the same compound?
**A.** Its value is “little changed from baseline”.
